From patent publication US20170128412A1, “SYSTEM AND METHOD FOR IMPROVED BLOOD CIRCULATION AND MAINTAINING MITOCHONDRIAL ENERGY PRODUCTION” (priority 2015, published 2017)

Key:
[1] = Linoleate peroxidative reaction inhibition (AAPH, linoleate micellar solution); format: biochemical; conditions: for inhibition rate for linoleate hydroperoxide generation: as stated in the description ("Studies indicate"); for Inhibition rate (%): specimen 25 μM
Protocol: Chart 4 indicates the linoleate peroxidative reaction inhibition action of tocotrienol, a-tocopherol, and Coenzyme Q10. The linoleate micellar solution comprised 300mM linoleate, 5 mM 2,2′-Azobis(2-amidinopropane) dihydrochloride (AAPH), and a specimen (tocotrienol, α-tocopherol, or Coenzyme Q10) dissolved in 0.3% Lubrol Px—20 mM sodium phosphate buffer (pH 7.4). The reaction composition reacted at room temperature for one hour, and then 0.5 ml of methanol was added to the composition, and then 2.0 ml of 70% methanol was added to the composition. The absorbance measurement was conducted at 234 nm.

[2] = DPPH radical removal ability; format: biochemical; conditions: for IC50: DPPH radical removal
Protocol: Chart 3 indicates the diphenylpicrylhydrazl (DPPH) radical removal ability of torolox, tocotrienol, α-tocopherol, and coenzyme Q10. The reaction composition was carried out in a DPPH solution comprising 8 mg DPPH per 100 ml of 50% ethanol. The total reaction composition comprised 0.2 ml of the specimen (torolox, tocotrienol, α-tocopherol, or coenzyme Q10) and 1.8 ml of the aforementioned DPPH solution. The total reaction composition reacted at room temperature in a dark place for 30 minutes. The absorbance measurement was carried out at 517 nm.

Compound	Linoleate peroxidation inhibition, result in words [1]	inhibition rate for linoleate hydroperoxide generation [1]	DPPH inhibition, result in words [2]	Inhibition rate (%) ([2]; specimen 25 μM)	Inhibition rate (%) ([2]; specimen 50 μM)	Inhibition rate (%) ([2]; specimen 100 μM)	IC50 [2]	Inhibition rate (%) [1]
COC1=C(OC)C(=O)C(C/C=C(\C)CC/C=C(\C)CC/C=C(\C)CC/C=C(\C)CC/C=C(\C)CC/C=C(\C)CC/C=C(\C)CC/C=C(\C)CC/C=C(\C)CCC=C(C)C)=C(C)C1=O [Coenzyme Q10, coenzyme Q10]	did not exhibit inhibition action	no such inhibition	did not exhibit inhibition action	<0%	<0%	<0%	–	–
Cc1c(C)c2c(c(C)c1O)CCC(C)(C(=O)O)O2 (centres unmarked) [Torolox, torolox]	–	–	–	19.1%	48.2%	94.9%	43.8 µM	–
Cc1c(C)c2c(c(C)c1O)CC[C@@](C)(CCC[C@H](C)CCC[C@H](C)CCCC(C)C)O2 [α-Tocopherol, α-tocopherol]	–	–	–	15.2%	41%	87.6%	51.1 µM	42.2%
tocotrienol	inhibition at the same level as a-tocopherol	about 40%	approximately the same level as a-tocopherol	16.3%	41%	79.8%	55 µM	42.2%
